Common to all, as to format: functional, cell-based
Assay [1] can be described thus: Antiproliferative activity against human SMMC7721 cells assessed as inhibition of cell proliferation by CCK8 assay. To be noted: SMMC-7721.
Assay [2] concerns MCF7. Put plainly: Antiproliferative activity against human MCF7 cells assessed as inhibition of cell proliferation by CCK8 assay.
For assay [3], the system named is A549. Put plainly: Antiproliferative activity against human A549 cells assessed as inhibition of cell proliferation by CCK8 assay.

Molecules are shown by their SMILES.

For `Oc1ccccc1/C=N/c1nnc(SCc2nnc(-c3ccccc3)o2)s1`, the IC50 in assay [1] worked out at 7.1 µM; in assay [2] it was 9.76 µM; in assay [3], 4.11 µM.
Take `Oc1ccccc1/C=N/c1nnc(SCc2nnc(-c3ccc(F)cc3)o2)s1`: the IC50 in assay [1] was determined as 13.1 µM; in assay [2], 15.6 µM; in assay [3] it was 20.1 µM.
In the case of `Oc1ccccc1/C=N/c1nnc(SCc2nnc(-c3ccccc3Cl)o2)s1`, the IC50 in assay [1] was 31.8 µM; in assay [2], 18.1 µM; in assay [3], 18.1 µM.
For the compound `Oc1ccccc1/C=N/c1nnc(SCc2nnc(-c3ccc(Cl)cc3)o2)s1`, the IC50 was 2.84 µM in assay [1], 7.55 µM in assay [2] and 30.1 µM in assay [3].
For `Oc1ccccc1/C=N/c1nnc(SCc2nnc(-c3ccccc3Br)o2)s1` the same measures were 6.78 µM, 9.14 µM and 7.15 µM.
Taken in the same sequence, the figures for `Oc1ccccc1/C=N/c1nnc(SCc2nnc(-c3ccc(Br)cc3)o2)s1` were 18 µM, 8.32 µM and 20 µM.
Turning to `Cc1ccccc1-c1nnc(CSc2nnc(/N=C/c3ccccc3O)s2)o1`, the IC50 in assay [1] was found to be 15.5 µM; in assay [2] it was 9.36 µM; in assay [3] it was 7.85 µM.
For the compound `Cc1cccc(-c2nnc(CSc3nnc(/N=C/c4ccccc4O)s3)o2)c1`, the IC50 stood at 4.55 µM in assay [1], 11.6 µM in assay [2] and 24.3 µM in assay [3].
For `Cc1ccc(-c2nnc(CSc3nnc(/N=C/c4ccccc4O)s3)o2)cc1` the same measures were 37.1 µM, 8.75 µM and 22 µM.
With `COc1cccc(-c2nnc(CSc3nnc(/N=C/c4ccccc4O)s3)o2)c1`, the half-maximal inhibitory concentration (IC50) worked out at 4.34 µM in assay [1], 22 µM in assay [2] and 8.82 µM in assay [3].
Taken in the same sequence, the figures for `COc1ccc(-c2nnc(CSc3nnc(/N=C/c4ccccc4O)s3)o2)cc1` were 10 µM, 4.56 µM and 20.3 µM.
Taken in the same sequence, the figures for `COc1cc(-c2nnc(CSc3nnc(/N=C/c4ccccc4O)s3)o2)cc(OC)c1OC` were 7.6 µM, 7.95 µM and 6.55 µM.
Regarding `O=[N+]([O-])c1cccc(-c2nnc(CSc3nnc(/N=C/c4ccccc4O)s3)o2)c1`, the IC50 in assay [1] was 15.7 µM; in assay [2], 13.9 µM; in assay [3], 36.9 µM.
For `O=[N+]([O-])c1ccc(-c2nnc(CSc3nnc(/N=C/c4ccccc4O)s3)o2)cc1` the same measures were 16.9 µM, 4.25 µM and 4.13 µM.
Regarding `O=c1[nH]cc(F)c(=O)[nH]1` [FLUOROURACIL], the figures for the IC50 in assay [1] and in assay [3] were 5.62 µM and 8.13 µM, respectively.
